Target: T1, His6-PDK1 (aa 52-556) (Homo sapiens, UniProt O15530)
T1 construct: 15 μL His6-PDK1 (aa 52-556) 3.33 ng/well); host or cells: baculovirus-infected insect cells
T1 sequence (O15530 52-556): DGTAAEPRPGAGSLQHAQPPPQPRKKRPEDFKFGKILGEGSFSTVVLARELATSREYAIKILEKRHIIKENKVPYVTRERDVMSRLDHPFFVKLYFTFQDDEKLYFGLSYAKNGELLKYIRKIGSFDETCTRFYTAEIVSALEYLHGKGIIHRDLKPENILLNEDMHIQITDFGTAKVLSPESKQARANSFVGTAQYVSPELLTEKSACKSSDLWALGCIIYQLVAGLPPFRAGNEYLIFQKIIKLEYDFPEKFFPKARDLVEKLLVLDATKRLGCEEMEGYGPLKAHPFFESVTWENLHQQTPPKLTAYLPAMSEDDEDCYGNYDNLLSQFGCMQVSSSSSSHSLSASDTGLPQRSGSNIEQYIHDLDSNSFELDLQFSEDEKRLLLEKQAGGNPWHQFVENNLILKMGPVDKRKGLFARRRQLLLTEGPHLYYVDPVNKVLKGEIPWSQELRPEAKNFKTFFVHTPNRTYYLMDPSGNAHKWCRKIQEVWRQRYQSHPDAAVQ
Experiment: PDK1 kinase assay III (with Tween 20)
Type: biochemical
Conditions: compound at 10 μM; PDK1 kinase assay III (values without asterisk); read-out: % CTL (residual activity of the enzyme relative to DMSO control)
Method: Purified enzyme may be obtained for example from the University of Dundee, Scotland.
Another PDK1 assay was developed which by comparison with PDK1 assay 1 additionally contains Tween 20:
The final concentration of Tween 20 is 0.005%.
The reaction is started by adding the ATP solution and the mixture is incubated for 90 min at ambient temperature; at the start of the reaction the dishes are shaken gently. The reaction is stopped by the addition of 50 μL/well of 500 mM phosphoric acid (H3PO4) and incubated for about 20 min at ambient temperature. […] The measured data are evaluated using Graphpad Prism software.
The % CTL values indicate the residual activity of the enzyme after the addition of the inhibitory compound in the solvent DMSO in relation to the enzyme activity in the solvent DMSO without the addition of a compound (control). The majority of the values were determined using the PDK1 kinase assay III described hereinbefore. The values marked with an asterisk (* or**) were determined using the PDK1 kinase assay II described hereinbefore (one asterisk→incubation for 24 h; two asterisks→incubation for 5 min)

Structure (SMILES) | remaining activity at 10 µM [%]
COc1cc(C(=O)NC2CCN(C)CC2)ccc1Nc1ncc2cc(C#CCNC(=O)c3c(C)n(C)n(Cc4ccc(F)c(F)c4)c3=O)ccc2n1 | 61.8
CN(C)Cc1ccc(Nc2ncc3cc(C#CCNC(=O)c4ccnn(Cc5ccc(F)c(F)c5)c4=O)ccc3n2)cc1 | 13.3
Cc1c(C(=O)NCC#Cc2cc(OCCN)c3nc(Nc4ccccc4)ncc3c2)c(=O)n(Cc2ccc(F)c(F)c2)n1C | 9.8
NCCOc1cc(C#CCNC(=O)c2cncn(Cc3ccc(F)c(F)c3)c2=O)cc2cnc(Nc3ccccc3)nc12 | 13.7
Cc1c(C(=O)NC/C=C/c2cc(OCCN)c3nc(Nc4ccccc4)ncc3c2)c(=O)n(Cc2ccc(F)c(F)c2)n1C | 19.5
Cc1c(C(=O)NC/C=C/c2cc(OCCN)c3nc(Nc4ccc(N5CCOCC5)cc4)ncc3c2)c(=O)n(Cc2ccc(F)c(F)c2)n1C | 13
NCCOc1cc(C#CCNC(=O)c2cncn(Cc3ccc(F)c(F)c3)c2=O)cc2cnc(Nc3ccc(N4CCOCC4)cc3)nc12 | 18.3
Cc1c(C(=O)NCC#Cc2cc(OCCN)c3nc(Nc4ccc(N5CCOCC5)cc4)ncc3c2)c(=O)n(Cc2ccc(F)c(F)c2)n1C | 13.8
NCCOc1cc(/C=C/CNC(=O)c2cncn(Cc3ccc(F)c(F)c3)c2=O)cc2cnc(Nc3ccc(N4CCOCC4)cc3)nc12 | 10.1
O=C(NC/C=C/c1cc(OC2CCNCC2)c2nc(Nc3ccc(N4CCOCC4)cc3)ncc2c1)c1cncn(Cc2ccc(F)c(F)c2)c1=O | 12.3
O=C(NCC#Cc1cc(OC2CCNCC2)c2nc(Nc3ccc(N4CCOCC4)cc3)ncc2c1)c1cncn(Cc2ccc(F)c(F)c2)c1=O | 9.4
Cc1c(C(=O)NCC#Cc2cc(OC3CCNCC3)c3nc(Nc4ccc(N5CCOCC5)cc4)ncc3c2)c(=O)n(Cc2ccc(F)c(F)c2)n1C | 12.3
Cc1c(C(=O)NC/C=C/c2cc(OCCCN)c3nc(Nc4ccc(N5CCOCC5)cc4)ncc3c2)c(=O)n(Cc2ccc(F)c(F)c2)n1C | 12.5
Cc1c(C(=O)NC/C=C/c2cc(OC3CCNC3)c3nc(Nc4ccc(N5CCOCC5)cc4)ncc3c2)c(=O)n(Cc2ccc(F)c(F)c2)n1C (stereo not drawn) | 10.3
CNC(=O)c1cccc(Nc2ncc3cc(C#CCNC(=O)c4c(C)n(C)n(Cc5ccc(F)c(F)c5)c4=O)ccc3n2)c1 | 19.3
O=C1Nc2cc(/C=C/CNC(=O)c3cncn(Cc4ccc(F)c(F)c4)c3=O)ccc2/C1=C/c1ccc[nH]1 [I-1, 1-(3,4-difluorobenzyl)-6-oxo-N-{(2E)-3-[(3Z)-2-oxo-3-(1H-pyrrol-2-ylmethylidene)-2,3-dihydro-1H-indol-6-yl]prop-2-en-1-yl}-1,6-dihydropyrimidine-5-carboxamide] | 18.1
O=C1Nc2cc(/C=C/CNC(=O)c3cncn(Cc4ccc(F)c(F)c4)c3=O)ccc2/C1=C/c1cnc[nH]1 [I-2, 1-(3,4-difluorobenzyl)-N-{(2E)-3-[(3Z)-3-(1H-imidazol-5-ylmethylidene)-2-oxo-2,3-dihydro-1H-indol-6-yl]prop-2-en-1-yl}-6-oxo-1,6-dihydropyrimidine-5-carboxamide] | 12.2
Cc1nc[nH]c1/C=C1\C(=O)Nc2cc(/C=C/CNC(=O)c3cncn(Cc4ccc(F)c(F)c4)c3=O)ccc21 [I-4, 1-(3,4-difluorobenzyl)-N-[(2E)-3-{(3Z)-3-[(5-methyl-1H-imidazol-4-yl)methylidene]-2-oxo-2,3-dihydro-1H-indol-6-yl]prop-2-en-1-yl}-6-oxo-1,6-dihydropyrimidine-5-carboxamide] | 16.4
O=C1Nc2cc(/C=C/CNC(=O)c3ccnn(Cc4ccc(F)c(F)c4)c3=O)ccc2/C1=C/c1cnc[nH]1 [I-6, 2-(3,4-difluorobenzyl)-N-{(2E)-3-[(3Z)-3-(1H-imidazol-5-ylmethylidene)-2-oxo-2,3-dihydro-1H-indol-6-yl]prop-2-en-1-yl}-3-oxo-2,3-dihydropyridazine-4-carboxamide] | 17.5
O=C1Nc2cc(/C=C/CNC(=O)C3CCCN(Cc4ccc(F)c(F)c4)C3=O)ccc2/C1=C/c1cnc[nH]1 (stereo not drawn) [I-9, 1-(3,4-difluorobenzyl)-N-{(2E)-3-[(3Z)-3-(1H-imidazol-5-ylmethylidene)-2-oxo-2,3-dihydro-1H-indol-6-yl]prop-2-en-1-yl}-2-oxopiperidine-3-carboxamide] | 25.7
O=C1Nc2cc(/C=C/CNC(=O)C3CCCN(Cc4ccc(F)c(F)c4)C3=O)ccc2/C1=C/c1ccc[nH]1 (stereo not drawn) [I-10, 1-(3,4-difluorobenzyl)-2-oxo-N-{(2E)-3-[(3Z)-2-oxo-3-(1H-pyrrol-2-ylmethylidene)-2,3-dihydro-1H-indol-6-yl]prop-2-en-1-yl}piperidine-3-carboxamide] | 36.1
O=C1Nc2cc(/C=C/CNC(=O)C3CCN(Cc4ccc(F)c(F)c4)C3=O)ccc2/C1=C/c1cnc[nH]1 (stereo not drawn) [I-11, 1-(3,4-difluorobenzyl)-N-{(2E)-3-[(3Z)-3-(1H-imidazol-5-ylmethylidene)-2-oxo-2,3-dihydro-1H-indol-6-yl]prop-2-en-1-yl}-2-oxopyrrolidine-3-carboxamide] | 21.7
Cc1c(C(=O)NC/C=C/c2ccc3c(c2)NC(=O)/C3=C\c2ccc[nH]2)c(=O)n(Cc2ccc(F)c(F)c2)n1C [I-16, 2-(3,4-difluorobenzyl)-1,5-dimethyl-3-oxo-N-{(2E)-3-[(3Z)-2-oxo-3-(1H-pyrrol-2-ylmethylidene)-2,3-dihydro-1H-indol-6-yl]prop-2-en-1-yl}-2,3-dihydro-1H-pyrazole-4-carboxamide] | 15.4
Cc1c(C(=O)NC/C=C/c2ccc3c(c2)NC(=O)/C3=C\c2cnc[nH]2)c(=O)n(Cc2ccc(F)c(F)c2)n1C [I-17, 2-(3,4-difluorobenzyl)-N-{(2E)-3-[(3Z)-3-(1H-imidazol-5-ylmethylidene)-2-oxo-2,3-dihydro-1H-indol-6-yl]prop-2-en-1-yl}-1,5-dimethyl-3-oxo-2,3-dihydro-1H-pyrazole-4-carboxamide] | 14.3
O=C1Nc2cc(/C=C/CNC(=O)c3cccc(Nc4ccc(F)c(F)c4)n3)ccc2/C1=C/c1ccc[nH]1 [I-19, 6-[(3,4-difluorophenyl)amino]-N-{(2E)-3-[(3Z)-2-oxo-3-(1H-pyrrol-2-ylmethylidene)-2,3-dihydro-1H-indol-6-yl]prop-2-en-1-yl}pyridine-2-carboxamide] | 36.9
O=C1Nc2cc(/C=C/CNC(=O)c3cccc(Nc4ccc(F)c(F)c4)n3)ccc2/C1=C/c1cnc[nH]1 [I-20, 6-[(3,4-difluorophenyl)amino]-N-{(2E)-3-[(3Z)-3-(1H-imidazol-5-ylmethylidene)-2-oxo-2,3-dihydro-1H-indol-6-yl]prop-2-en-1-yl}pyridine-2-carboxamide] | 42.7
O=C1Nc2cc(/C=C/CNC(=O)c3cc(Cl)nn(Cc4ccc(F)c(F)c4)c3=O)ccc2/C1=C/c1cnc[nH]1 [I-33, 6-chloro-2-(3,4-difluorobenzyl)-N-{(2E)-3-[(3Z)-3-(1H-imidazol-5-ylmethylidene)-2-oxo-2,3-dihydro-1H-indol-6-yl]prop-2-en-1-yl}-3-oxo-2,3-dihydropyridazine-4-carboxamide] | 12
